Values joined by “and” are separate entries in the source; they are usually repeats but may differ in a detail not shown here. Identical values can stand only once. Like-named read-outs stand apart in the source and are kept apart here.
Tests used:
[1] = biological target: T1, FatA (AtFatA) (Arabidopsis thaliana, UniProt Q42561); test: fluorescent CPM detection of CoA released from oleoyl-CoA; format: biochemical
T1 construct: residues 1-74 (chloroplast transit peptide) removed; noncleavable C-terminal His6 tag; codon-optimised gene in pET-24a(+), E. coli BL21(DE3); dimer by native mass spectrometry
T1 sequence (Q42561 75-362): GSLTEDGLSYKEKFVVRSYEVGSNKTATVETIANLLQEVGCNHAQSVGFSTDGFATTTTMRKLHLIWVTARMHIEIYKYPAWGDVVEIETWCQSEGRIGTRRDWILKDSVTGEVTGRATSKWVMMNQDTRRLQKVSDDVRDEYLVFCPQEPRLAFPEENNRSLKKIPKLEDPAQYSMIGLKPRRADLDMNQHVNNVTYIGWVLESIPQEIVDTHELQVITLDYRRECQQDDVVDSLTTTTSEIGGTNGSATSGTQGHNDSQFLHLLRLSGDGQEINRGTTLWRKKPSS

[2] = biological target: T1, FatA (AtFatA); test: X-ray crystal structure, fragment soak; conditions: crystal soak […], […] DMSO, pH […]; herbicide binding site
[3] = biological target: T1, FatA (AtFatA); test: SPR, steady-state […] fit, His-captured and amine-coupled FatA; format: binding
[4] = biological target: T1, FatA (AtFatA); test: biochemical; design: SPR (Biacore 8K, immobilized His-tagged FatA), steady-state affinity and 1:1 kinetic fits, 20 °C; conditions: for kon: read-out: ka (1/Ms), kinetic fit; for koff: read-out: kd (1/s), kinetic fit; for ka / kd: kinetic fit; for ka: ka (1/Ms); for kd: kd (1/s)
Description: The analogues were used to explore the binding capabilities of the herbicide pocket as well as tolerance to heterocyclic ring size. […] The resulting 60 compounds were either purchased from Enamine REAL or synthesized in‐house. […] Chemical structures of all x1816 analogues tested are available in Data S1. Binding data can be found in Data S2.

[5] = biological target: T1, FatA (AtFatA); test: biochemical; design: SPR (Biacore 8K), His-captured FatA; steady-state affinity KD and kinetic fit (1:1 model); conditions: steady-state affinity fit
Experimental: FatA was immobilized on an NTA sensor chip (GE Healthcare, Chicago, IL, USA) using a Biacore 8K, captured via His‐tag and simultaneous amine coupling on EDC/NHS‐activated carboxyl groups (Immobilization buffer: 25 mM HEPES pH 7.4, 150 mM NaCl, 1 mM TCEP, 0.05% Tween 20). Equilibrium binding experiments were performed at 20 °C using a Biacore 8K instrument (GE Healthcare) with 25 mM HEPES pH 7.4, 150 mM NaCl, 1 mM TCEP, 0.05% Tween 20 and 2% DMSO as running buffer for compound testing. Compounds were injected over the chip in two‐fold dilution series either in multi‐cycle mode (60s/180s association/dissociation time) or single‐cycle kinetic mode (160 s/1800s association/dissociation time). Indicative K D values were obtained by steady‐state affinity fitting to a 1:1 binding site model.

NS(=O)(=O)c1nc2ccccc2[nH]1 [x1168/x1231]
IC50 ([1]; […] oleoyl-CoA, […] FatA, pH […], room temperature, active site (also dimer site), unreliable): > 250 µM

Nc1cc(F)ccc1C(=O)O [x1290]
X-ray crystal structure, fragment soak [2]: x1290 and x1437 which share a similar chemical motif and are both bound

O=C(O)c1sccc1-n1cccc1 [x1425]
IC50 [1]: > 250 µM

Cc1cccc(C(=O)O)c1N [x1437]
X-ray crystal structure, fragment soak [2]: x1290 and x1437 which share a similar chemical motif and are both bound

Nc1ccc2oc(=O)ccc2c1 [x1463]
IC50 [1]: 142 µM

CNC1CCN(c2ccccc2F)C1=O (stereo not shown) [x1573]
IC50 [1]: 29 µM

CC(=O)N1CCSc2ccccc2C1 [x1816-FU1]
Kd [3]: ~0.09 µM
Kd [4]: 0.0741 µM
kon [4]: 463000 M⁻¹ s⁻¹
koff [4]: 0.0343 s⁻¹

CC(=O)N1CCSc2ccccc2C1 [x1816-FU1_repeat]
ka [4]: 367000 M⁻¹ s⁻¹ and 305000 M⁻¹ s⁻¹
kd [4]: 0.0326 s⁻¹ and 0.0293 s⁻¹

CCC(=O)N1CCCc2ccccc2C1 [x1816-FU2]
Kd [4]: 0.156 µM
ka [4]: 321361.600232 M⁻¹ s⁻¹
koff [4]: 0.0502 s⁻¹

CCC(=O)N1CCCc2ccccc2C1 [x1816-FU2_repeat]
ka [4]: 163000 M⁻¹ s⁻¹ and 124000 M⁻¹ s⁻¹
kd [4]: 0.0811 s⁻¹ and 0.0645 s⁻¹

CCCC(=O)N1c2ccccc2CCC1C (stereo not shown) [x1816-FU4]
Kd [4]: 1.16 µM
kon [4]: 10100 M⁻¹ s⁻¹
koff [4]: 0.0117 s⁻¹

CCCC(=O)N1c2ccccc2CCC1C (stereo not shown) [x1816-FU4_repeat]
ka [4]: 12300 M⁻¹ s⁻¹ and 10600 M⁻¹ s⁻¹
kd [4]: 0.0147 s⁻¹ and 0.0135 s⁻¹

CC(=O)N1c2ccccc2OCC1C (stereo not shown) [x1816-FU5]
Kd [4]: 1.55 µM
kon [4]: 45000 M⁻¹ s⁻¹
koff [4]: 0.0695 s⁻¹

CC(C)C(=O)N1c2ccccc2CCC1C (stereo not shown) [x1816-FU6]
Kd [4]: 1.63 µM
kon [4]: 13600 M⁻¹ s⁻¹
koff [4]: 0.0222 s⁻¹

CCC(C)C(=O)N1c2ccccc2CCC1C (stereo not shown) [x1816-FU7]
Kd [4]: 1.96 µM
kon [4]: 4150 M⁻¹ s⁻¹
koff [4]: 0.00811 s⁻¹

CCC(=O)N1c2ccccc2CCC1C (stereo not shown) [x1816-FU8]
Kd [4]: 2.47 µM
kon [4]: 13900 M⁻¹ s⁻¹
koff [4]: 0.0343 s⁻¹

CC(=O)N1CCCc2c(Cl)ccc(F)c21 [x1816-FU9]
Kd [4]: 3.06 µM
kon [4]: 59600 M⁻¹ s⁻¹
koff [4]: 0.182 s⁻¹

CC(=O)N1CCCc2cccc(F)c21 [x1816-FU10]
Kd [4]: 3.1 µM
kon [4]: 50900 M⁻¹ s⁻¹
koff [4]: 0.158 s⁻¹

CC(=O)N1CC(C)(CO)Cc2ccccc21 (stereo not shown) [x1816-FU11]
Kd [4]: 3.13 µM
kon [4]: 8170 M⁻¹ s⁻¹
koff [4]: 0.0256 s⁻¹

COCC(=O)N1c2ccccc2CCC1C (stereo not shown) [x1816-FU12]
Kd [4]: 4.42 µM
kon [4]: 20000 M⁻¹ s⁻¹
koff [4]: 0.0885 s⁻¹

CC(C)CC(=O)N1c2ccccc2CCC1C (stereo not shown) [x1816-FU13]
Kd [4]: 8.7 µM
kon [4]: 8080 M⁻¹ s⁻¹
koff [4]: 0.0703 s⁻¹

CC1CCc2ccccc2N1C(=O)CC(C)(C)C (stereo not shown) [x1816-FU14]
Kd [4]: 19.9 µM
kon [4]: 3010 M⁻¹ s⁻¹
koff [4]: 0.06 s⁻¹

COCC(=O)N1CC(C)(C)c2ccccc21 [x1816-FU42]
Kd [5]: 57.7 µM

CCC1CCc2ccccc2N1C(C)=O (stereo not shown) [x1816-FU43]
Kd [5]: 68.1 µM

CC1CCc2ccccc2N1C(=O)NC(C)(C)C (stereo not shown) [x1816-FU44]
Kd [5]: 91.5 µM

CC(=O)N1CCC(C)c2ccccc21 (stereo not shown) [x1816-FU45]
Kd [5]: 93.8 µM

CC(=O)N1c2ccccc2C(C)CC1(C)C (stereo not shown) [x1816-FU54]
Kd [5]: > 100 µM

CC(=O)N1CCN(C)c2ncccc21 [x1816-FU56]
Kd [5]: > 100 µM

CC(=O)N1CC(C)(C)c2ccccc21 [x1816-FU57]
Kd [5]: > 100 µM

CC(=O)N1c2ccccc2C(C)(C)CC1C (stereo not shown) [x1816-FU58]
Kd [5]: > 100 µM

CC(=O)N1CCCc2cccnc21 [x1816-FU59]
Kd [5]: > 100 µM

CC(=O)N1CCCc2ncccc21 [x1816-FU60]
Kd [5]: > 100 µM

O=C(Nc1ccccc1)N1CCCCCC1 [x1944*]
IC50 [1]: 43.9 µM

CNCC1COc2ccccc2O1 (stereo not shown) [x2004]
IC50 [1]: 25.6 µM

Source: PMC12713704, “Crystal structure of fatty acid thioesterase A bound by 129 fragments provides diverse development opportunities” (Pest Management Science, 2025)
